Blank lines part the entries; values can stand above or below the compound they belong to. Where no end group is shown, it is not given here.
Experiments:
NPR—B = target: T1, NPR—B (Homo sapiens, UniProt P20594); conditions: cited from earlier work
T1 sequence (P20594 23-1047): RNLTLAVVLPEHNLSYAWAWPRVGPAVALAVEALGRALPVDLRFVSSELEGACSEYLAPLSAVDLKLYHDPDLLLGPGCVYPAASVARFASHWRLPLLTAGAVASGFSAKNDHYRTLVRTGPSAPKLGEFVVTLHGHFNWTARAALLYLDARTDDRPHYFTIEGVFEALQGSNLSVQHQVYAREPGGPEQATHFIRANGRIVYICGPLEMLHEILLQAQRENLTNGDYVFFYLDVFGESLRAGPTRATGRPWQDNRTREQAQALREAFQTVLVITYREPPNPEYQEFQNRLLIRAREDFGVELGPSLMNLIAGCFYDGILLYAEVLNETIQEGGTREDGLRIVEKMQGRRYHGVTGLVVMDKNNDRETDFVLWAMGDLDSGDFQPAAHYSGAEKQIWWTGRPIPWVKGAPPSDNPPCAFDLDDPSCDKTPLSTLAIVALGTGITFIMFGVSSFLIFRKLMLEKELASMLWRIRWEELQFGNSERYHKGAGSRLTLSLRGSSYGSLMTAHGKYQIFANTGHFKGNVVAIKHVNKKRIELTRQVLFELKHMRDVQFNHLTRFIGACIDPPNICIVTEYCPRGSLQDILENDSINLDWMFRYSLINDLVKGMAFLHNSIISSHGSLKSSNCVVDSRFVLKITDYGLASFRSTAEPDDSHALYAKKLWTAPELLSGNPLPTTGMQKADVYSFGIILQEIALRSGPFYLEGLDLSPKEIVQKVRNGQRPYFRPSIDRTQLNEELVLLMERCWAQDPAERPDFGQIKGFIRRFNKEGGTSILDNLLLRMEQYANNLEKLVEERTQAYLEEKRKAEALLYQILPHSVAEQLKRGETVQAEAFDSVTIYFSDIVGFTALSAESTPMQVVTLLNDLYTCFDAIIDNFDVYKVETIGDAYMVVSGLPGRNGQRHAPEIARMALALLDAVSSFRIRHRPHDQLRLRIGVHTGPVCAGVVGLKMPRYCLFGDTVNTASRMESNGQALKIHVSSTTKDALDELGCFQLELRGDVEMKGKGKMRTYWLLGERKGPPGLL

[1] = pH 9
Protocol: To make hydrophobic CNP salts, including CNP variants, CNP-acetate is placed into water or a buffer. In a first experiment, a stock solution comprising CNP at 20 mg/mL in water was prepared. […] Disodium pamoic acid, oleic acid, or sodium docusate were placed in a buffer at a concentration that is in a molar excess to the number of oppositely charged groups on CNP, in this instance a 12 molar excess of counterion to CNP. CNP has 6 positively charged groups at pH 7, and this is a two-fold excess over the number of positively charged groups.

[2] = cited from earlier work
PRKG2 = conditions: previous activation data (Campbell 2017; Vaandrager 1997; Pohler 1995); cited from earlier work
[3] = tested on: mice deficient in Nf1 in type II collagen producing cells; conditions: daily injections; cited from earlier work
NPR2 = target: T2, NPR2 (Rattus norvegicus, UniProt P16067); assay: cGMP stimulation assay (CatchPoint Cyclic-GMP Fluorescent Assay) in NPR2 mutant RCS cells; assay type: cell-based
T2 construct: endogenous in cells; host or cells: RCS (rat chondrosarcoma) cells, wild-type and NPR2+/- clones
T2 sequence (P16067 17-1047): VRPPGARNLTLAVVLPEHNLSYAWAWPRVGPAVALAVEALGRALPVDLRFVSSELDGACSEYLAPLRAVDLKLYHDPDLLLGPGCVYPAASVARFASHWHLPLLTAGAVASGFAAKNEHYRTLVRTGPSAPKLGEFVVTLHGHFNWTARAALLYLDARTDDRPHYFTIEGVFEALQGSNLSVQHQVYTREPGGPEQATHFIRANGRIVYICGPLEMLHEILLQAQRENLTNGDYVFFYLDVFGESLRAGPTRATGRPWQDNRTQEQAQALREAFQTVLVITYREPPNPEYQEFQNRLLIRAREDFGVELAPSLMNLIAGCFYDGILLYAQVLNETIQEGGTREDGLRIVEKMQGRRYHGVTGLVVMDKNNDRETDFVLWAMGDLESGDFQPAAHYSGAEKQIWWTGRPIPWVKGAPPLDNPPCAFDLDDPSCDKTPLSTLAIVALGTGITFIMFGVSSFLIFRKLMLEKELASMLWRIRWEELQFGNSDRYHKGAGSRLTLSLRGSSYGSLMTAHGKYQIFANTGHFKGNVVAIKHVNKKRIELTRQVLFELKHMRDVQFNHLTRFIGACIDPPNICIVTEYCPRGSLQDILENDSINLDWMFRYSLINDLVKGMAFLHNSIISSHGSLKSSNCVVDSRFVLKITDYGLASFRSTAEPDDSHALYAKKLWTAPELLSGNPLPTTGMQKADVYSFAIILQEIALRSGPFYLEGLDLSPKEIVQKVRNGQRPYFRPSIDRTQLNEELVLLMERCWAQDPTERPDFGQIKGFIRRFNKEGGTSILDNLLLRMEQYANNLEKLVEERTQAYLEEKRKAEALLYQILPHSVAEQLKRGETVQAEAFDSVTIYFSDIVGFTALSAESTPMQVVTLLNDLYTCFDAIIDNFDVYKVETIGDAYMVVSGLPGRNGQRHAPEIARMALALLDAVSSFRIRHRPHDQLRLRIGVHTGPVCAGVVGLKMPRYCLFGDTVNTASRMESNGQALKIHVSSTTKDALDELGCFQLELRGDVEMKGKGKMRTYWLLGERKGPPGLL
Protocol: To determine the effects of CNP on subjects with short stature resulting from NPR2 mutations, cellular models of NPR2 mutations were developed. Exemplary NPR2 mutations analyzed are set out in FIG. 5. Rat chondrosarcoma (RCS) cells having either a knockout of, or heterozygous loss of function mutations in, the NPR2 gene were made by RNP transfection into RCS cells using 125 ng NPR2 variants or wild-type NPR2 plasmid DNA transfected into RCS or HEK293 cells. Single cell clones were seeded and genotyped by Sanger sequencing. Cell models are able to reproduce published cGMP phenotypes of the different mutations.
The NPR2 clones were created by creating insertions and deletions in the first exon of NPR2 in RCS cells. The sequence of the first exon in NPR2 was confirmed by next-generation sequencing and is set out in FIG. 4. NPR2 mutant cells were tested for activity in response to CNP administration by a cGMP stimulation assay using a CatchPoint Cyclic-GMP Fluorescent Assay after treatment with 6 nM of Pro-Gly CNP37. Briefly, NIH3T3 cells (ATCC, CRL-1658) and NPR-transfected HEK293 cells were seeded at 60,000 cells/well in a 96-well plate (96-well black imaging plates, Grenier, #655090). RCS (rat chondrosarcoma) cells were seeded at 40,000 cells/well. Culture media was as follows: NIH3T3 culture media: DMEM high glucose, pyruvate (Thermo, 11995-073)+10% FBS+1× Pen Strep (abbrev P/S, Thermo, cat #15140122). NIH3T3 was the control system for the cGMP assay HEK293 culture media: EMEM+10% FBS+1×P/S+1×GMAX. RCS culture media: DMEM+10% FBS+1× Pen Strep. Serum free NIH3T3 media: DMEM+1×P/S for treatment of cells with IBMX (CAS 28822-58-4); Serum free NIH3T3 media with BSA: DMEM+1×P/S+0.5 mg/mL BSA (Thermo, A9418-100G) for treatment of cells with CNP.
Cells were incubated for 24 hours at 37° C., 5% CO2. For cells to be treated with CNP variants, plates were pre-treated with IBMX (Enzo life sciences, 89161-340, 1 g) 15 minutes prior to use. IBMX is a potent, non-specific inhibitor of phosphodiesterases. An 800 mM stock solution of IBMX is diluted in IBMX dilution media (serum-free media (DMEM+[…] mixed 1:1 with 1×PBS) to a 0.75 mM working stock.
For cell treatment, cells were removed from the incubator, growth media was removed from cells and cells treated with IBMX. 80 μL 0.75 mM IBMX was added to each well and cells returned to 37° C. incubator for 15 minutes. […]
The cGMP assay was carried out using a cGMP calibrator, rabbit anti-cGMP antibody and HRP-cGMP prepared as according to manufacturer's protocol. 40 μL of calibrator was added to wells of an anti-cGMP antibody coated plated, and 40 μL of lysate to be analyzed added to the appropriate wells. […] The plate was read for fluorescence intensity on a Spectramax M, or similar instrument, at excitation 530 nm and emission at 590 nm.

[4] = tested on: mouse model of Cardiofaciocutaneous syndrome using a Braf mutation (p.Q241R); conditions: in vivo; cited from earlier work

Compound: GLSKGCFGLKLDRIGSMSGLGC [CNP-22]
binding to NPR—B (NPR—B): bind similarly

Compound: DLRVDTKSRAAWARLLQEHPNARKYKGANKKGLSKGCFGLKLDRIGSMSGLGC [CNP-53]
binding to NPR—B (NPR—B): bind similarly

solubility of counterion [1]: soluble
Compound: CCCCCCCC/C=C\CCCCCCCC(=O)O [oleic acid]
pKa [2]: 4-5

Compound: Nc1nc2c(ncn2[C@@H]2O[C@@H]3COP(=O)(O)O[C@H]3[C@H]2O)c(=O)[nH]1 [cGMP, guanosine 3′,5′ cyclic monophosphate]
EC50 (PRKG2): 40 to 360 nM

solubility of counterion [1]: soluble
Compound: CCCCC(CC)COC(=O)CC(C(=O)OCC(CC)CCCC)S(=O)(=O)[O-].[Na+] (centres unmarked) [sodium docusate]

Compound: CNP: C-type natriuretic peptide; in the cGMP assay cells were treated with Pro-Gly CNP37 (PGQEHPNARKYKGANKKGLSKGCFGLKLDRIGSMSGLGC; not fully specified (N-terminus, C-terminus); ends and bridges not checked)
ERK phosphorylation [3]: decreased ERK phosphorylation | short stature [3]: corrected the short stature | rescue of NPR2 signaling (NPR2; cell model of NPR2 haploinsufficiency, exogenous CNP): dose-dependent rescue of NPR2 signaling | CNP dose able to achieve an intracellular cGMP concentration exceeding the EC50 range for PRKG2 activation (NPR2; heterozygous NPR2 knockout cells): > 0.163 nM | CNP dose able to achieve the same cGMP concentration (NPR2; wild-type cells): 0.040 nM | body length [4]: increases in body length

cGMP readout (NPR2; NPR2+/− rat chondrosarcoma cell model, exogenous peptide (FIG. 3)): rescues cGMP readout
Compound: PGQEHPNARKYKGANKKGLSKGCFGLKLDRIGSMSGLGC (not fully specified (N-terminus, C-terminus); cysteine pairing not given here) [Pro-Gly-CNP37, CNP variant]

solubility of counterion [1]: soluble
Compound: O=C(O)c1cc2ccccc2c(Cc2c([O-])c(C(=O)O)cc3ccccc23)c1[O-].[Na+].[Na+] [disodium pamoic acid]

Source: patent US20220280647A1, “Hydrophobic Peptide Salts for Extended Release Compositions” (BIOMARIN PHARMACEUTICAL INC., priority 2019, published 2022)
